The values that follow are results of earlier work, collected in PMC6151732, “A New Noncanonical Anionic Peptide That Translocates a Cellular Blood–Brain Barrier Model” (Molecules : A Journal of Synthetic Chemistry and Natural …, 2017).

This data set concerns brain. Here is the method: Dengue virus type-2 capsid (DEN2C) protein-derived membrane-active peptides have been thoroughly studied by our group. […] An additional study was performed using the four α-helical domains of the DEN2C protein (α1, α2, α3 and α4) to identify trans-BBB peptides. […] PepH3, a hydrophobic peptide, is able to transcytose across the cell, while other peptides accumulate inside the endothelial membrane ...

Take AGILKRW [PepH3]: the Brain uptake result was “high brain uptake”.
